How the values were obtained:
[1] = molecular target: CDK9/cyclin T1 (Homo sapiens, UniProt P50750); assay: Inhibition of human full-length N-terminal GST-fused CDK9 (1 to 372 residues)/His-tagged Cyclin-T1 (1 to 726 residues) expressed in baculovirus expression system using PEP as substrate incubated for 17 mins in presence of ATP by TR-FRET assay
[2] = molecular target: Cyclin-dependent kinase 4/cyclin D1 (Homo sapiens, UniProt P11802); assay: Inhibition of recombinant human full-length GST-tagged CDK4/cyclinD1 expressed in baculovirus expression system using PEP as substrate incubated for 3 mins in presence of ATP by TR-FRET assay
Chain of Cyclin-dependent kinase 4/cyclin D1 (P11802 whole entry): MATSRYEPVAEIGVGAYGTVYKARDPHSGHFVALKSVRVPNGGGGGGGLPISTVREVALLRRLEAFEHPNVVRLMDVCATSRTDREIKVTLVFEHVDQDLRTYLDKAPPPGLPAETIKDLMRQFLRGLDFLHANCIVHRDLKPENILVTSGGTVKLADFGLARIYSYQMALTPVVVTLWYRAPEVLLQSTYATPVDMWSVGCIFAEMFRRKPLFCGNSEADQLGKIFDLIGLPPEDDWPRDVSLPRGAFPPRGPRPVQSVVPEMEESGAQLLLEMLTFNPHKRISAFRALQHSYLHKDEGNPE
Chain of Cyclin-dependent kinase 4/cyclin D1 (P24385 whole entry, further chain): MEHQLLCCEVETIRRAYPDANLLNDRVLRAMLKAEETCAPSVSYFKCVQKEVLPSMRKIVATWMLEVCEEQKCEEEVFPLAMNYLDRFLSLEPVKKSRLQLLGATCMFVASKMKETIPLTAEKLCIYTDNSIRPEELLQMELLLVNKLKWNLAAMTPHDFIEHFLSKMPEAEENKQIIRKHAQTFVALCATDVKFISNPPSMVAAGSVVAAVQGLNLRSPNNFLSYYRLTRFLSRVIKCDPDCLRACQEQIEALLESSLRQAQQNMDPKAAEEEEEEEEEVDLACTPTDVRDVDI

[3] = Oral bioavailability in rat at 100 mg/kg administered as single dose measured up to 48 hrs by LC-MS/MS analysis; assay type: ADME, organism-based; conditions: in vivo
[4] = Half life in rat at 100 mg/kg, po measured up to 48 hrs by LC-MS/MS analysis; assay type: ADME, organism-based; conditions: in vivo
[5] = molecular target: CDK6/cyclin D3 (Homo sapiens, UniProt Q00534); assay: Inhibition of human full-length N-terminal GST tagged CDK6 (1 to 326 residues)/cyclinD3 (1 to 292 residues) expressed in baculovirus expression system using PEP as substrate incubated for 3 mins in presence of ATP by TR-FRET assay
Chain of CDK6/cyclin D3 (P30281 whole entry, the tested form may be a part): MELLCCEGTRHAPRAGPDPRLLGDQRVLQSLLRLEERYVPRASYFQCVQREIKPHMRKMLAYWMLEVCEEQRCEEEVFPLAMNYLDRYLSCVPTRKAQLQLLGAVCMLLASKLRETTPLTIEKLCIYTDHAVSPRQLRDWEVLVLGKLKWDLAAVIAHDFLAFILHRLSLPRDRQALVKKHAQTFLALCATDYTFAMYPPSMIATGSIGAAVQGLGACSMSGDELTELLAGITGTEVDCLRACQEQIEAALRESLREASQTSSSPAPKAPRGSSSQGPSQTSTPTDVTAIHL
Chain of CDK6/cyclin D3 (Q00534 whole entry, the tested form may be a part): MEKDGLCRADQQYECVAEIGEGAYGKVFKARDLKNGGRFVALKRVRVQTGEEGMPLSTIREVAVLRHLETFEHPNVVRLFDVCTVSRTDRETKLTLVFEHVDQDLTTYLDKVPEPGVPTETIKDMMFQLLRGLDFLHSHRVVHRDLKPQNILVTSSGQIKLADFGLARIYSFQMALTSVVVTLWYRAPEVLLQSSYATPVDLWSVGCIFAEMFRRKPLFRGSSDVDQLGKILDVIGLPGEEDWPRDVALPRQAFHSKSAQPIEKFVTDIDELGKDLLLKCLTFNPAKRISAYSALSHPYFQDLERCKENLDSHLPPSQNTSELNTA

Chain of CDK9/cyclin T1 (O60563 whole entry, the tested form may be a part): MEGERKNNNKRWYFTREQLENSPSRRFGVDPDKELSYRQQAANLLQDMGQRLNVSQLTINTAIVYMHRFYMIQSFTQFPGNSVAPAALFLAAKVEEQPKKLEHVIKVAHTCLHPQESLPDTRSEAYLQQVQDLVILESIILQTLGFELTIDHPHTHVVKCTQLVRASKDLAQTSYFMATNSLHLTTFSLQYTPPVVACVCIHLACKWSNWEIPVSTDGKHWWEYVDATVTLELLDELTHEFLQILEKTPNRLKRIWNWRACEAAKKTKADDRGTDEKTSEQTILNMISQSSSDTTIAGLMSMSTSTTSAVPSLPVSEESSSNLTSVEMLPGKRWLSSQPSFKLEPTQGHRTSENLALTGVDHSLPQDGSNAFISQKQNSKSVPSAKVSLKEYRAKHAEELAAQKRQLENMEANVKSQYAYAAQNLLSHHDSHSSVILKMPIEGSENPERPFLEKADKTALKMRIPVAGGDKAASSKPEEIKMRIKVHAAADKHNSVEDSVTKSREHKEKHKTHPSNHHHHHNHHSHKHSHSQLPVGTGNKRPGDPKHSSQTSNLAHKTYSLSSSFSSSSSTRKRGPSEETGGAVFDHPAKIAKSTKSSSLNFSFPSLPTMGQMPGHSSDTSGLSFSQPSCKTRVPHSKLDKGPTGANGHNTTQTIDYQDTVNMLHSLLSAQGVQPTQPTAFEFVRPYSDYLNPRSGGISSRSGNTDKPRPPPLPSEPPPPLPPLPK
Chain of CDK9/cyclin T1 (P50750 whole entry, the tested form may be a part): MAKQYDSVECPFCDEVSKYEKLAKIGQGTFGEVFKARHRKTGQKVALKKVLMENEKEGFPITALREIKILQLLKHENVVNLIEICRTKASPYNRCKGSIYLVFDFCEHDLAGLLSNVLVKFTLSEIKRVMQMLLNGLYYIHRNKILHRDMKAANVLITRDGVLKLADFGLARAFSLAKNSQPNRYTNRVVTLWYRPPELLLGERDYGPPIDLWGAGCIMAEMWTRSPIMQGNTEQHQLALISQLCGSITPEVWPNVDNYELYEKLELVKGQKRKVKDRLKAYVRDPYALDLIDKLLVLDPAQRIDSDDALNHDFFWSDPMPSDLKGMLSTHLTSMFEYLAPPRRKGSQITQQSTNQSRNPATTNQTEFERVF

| Compound | IC50 [1] [µM] | IC50 [2] [µM] | bioavailability [3] [%] | half-life [4] [h] | IC50 [5] [µM] |
| --- | --- | --- | --- | --- | --- |
| CN1CCN(c2ccc(Nc3ncc4c(n3)N(C3CCCC3)C3(CC(=O)NC3=O)C4)cc2)CC1 (stereo not given) | 0.0805 | 0.0257 | – | – | – |
| CC(=O)c1c(C)c2cnc(Nc3ccc(N(C)CCN(C)C)cc3)nc2n(C23CC(C2)C3)c1=O | 0.149 | 0.03 | – | – | – |
| CN1CCN(c2ccc(Nc3ncc4c(n3)N(C3CCCC3)C3(CCNC3=O)C4)cc2F)CC1 (stereo not given) | 0.0466 | 0.0517 | – | – | 0.258 |
| CN1CCN(c2ccc(Nc3ncc4c(n3)N(C3CCCC3)C3(CC(=O)NC3=O)C4)cc2F)CC1 (stereo not given) | 0.0234 | 0.0144 | – | – | 0.0706 |
| CC(C)N1CCN(c2ccc(Nc3ncc4c(n3)N(C3CCCC3)C3(CC(=O)NC3=O)C4)cc2)CC1 (stereo not given) | 0.0707 | 0.0284 | – | – | – |
| CC(=O)c1c(C)c2cnc(Nc3ccc(OCCN(C)C)c(F)c3)nc2n(C2CCCC2)c1=O | 0.0318 | 0.003 | – | – | 0.0101 |
| CN1CCN(C2CCN(c3ccc(Nc4ncc5cc(C(=O)N(C)C)n(C67CC(C6)C7)c5n4)cc3F)CC2)CC1 | 0.00755 | 0.00378 | – | – | – |

Compounds with a lower IC50 [1], results first:

| IC50 [1] [µM] | IC50 [2] [µM] | bioavailability [3] [%] | half-life [4] [h] | IC50 [5] [µM] | Compound |
| --- | --- | --- | --- | --- | --- |
| 0.00603 | < 0.0032 | – | – | – | CC(=O)c1c(C)c2cnc(Nc3ccc(N4CC(C)NC(C)C4)cc3)nc2n(C2CCCC2)c1=O (stereo not given) |
| 0.00708 | 0.00381 | 33.3 | 6 | – | CN1CCN(c2ccc(Nc3ncc4cc(C(=O)N(C)C)n(C56CC(C5)C6)c4n3)cc2)CC1 |
| 0.00618 | 0.00413 | – | – | 0.0101 | CN(C)C(=O)c1cc2cnc(Nc3ccc(N4CCNCC4)c(F)c3)nc2n1C12CC(C1)C2 |
| < 0.0032 | < 0.0032 | – | – | – | CN(C)C(=O)c1cc2cnc(Nc3ccc(N4CCN(CCO)CC4)c(F)c3)nc2n1C12CC(C1)C2 |
| 0.00713 | < 0.0032 | – | – | – | CC(=O)c1c(C)c2cnc(Nc3ccc(N(C)CCN(C)C)cc3)nc2n(C2CCCC2)c1=O |

— ChEMBL document CHEMBL4673382, “Cyclin-Dependent Kinase Inhibitors in Cancer Therapeutics” (ACS Med Chem Lett, 2021)
